# From patent publication US7655233B2 (priority 2005, dated 2010)
# Test system: Vesicular Stomatitis Virus
substance,measurement,value
Polysorbate 80,virus inactivation by excipient,no appreciable virus inactivation occurred
